Measured values from patent US10106501B2, “Nuclear receptor modulators” (AbbVie Inc., priority 2015, dated 2018).

Target: T1, chimeric human RORγ-Gal4 receptor (Homo sapiens, UniProt P51449)
T1 sequence (P51449 269-508 limits assumed): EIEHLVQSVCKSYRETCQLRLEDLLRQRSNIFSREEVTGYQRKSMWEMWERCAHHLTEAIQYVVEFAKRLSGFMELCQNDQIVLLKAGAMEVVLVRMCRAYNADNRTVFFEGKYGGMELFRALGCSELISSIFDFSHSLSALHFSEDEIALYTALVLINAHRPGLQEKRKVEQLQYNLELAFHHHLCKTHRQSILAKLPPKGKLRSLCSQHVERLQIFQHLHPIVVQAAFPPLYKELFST
Assay: transient transactivation assay (RORγ-Gal4 luciferase reporter)
Assay type: cell-based
Conditions: Cos-7 cells transfected with RORγ-Gal4 and 5Gal4 pGL3 TK Luc reporter; overnight incubation; T0901317 at 10^-5 M as reference; read-out: IC50

Structure (SMILES)	IC50 [nM]
Cn1c(Cc2c(Cl)ccc(C(=O)N3CCC(CC(=O)O)CC3)c2Cl)cc2c(Cl)cc(Cl)cc21 [FA, 2-(1-(2,4-dichloro-3-((4,6-dichloro-1-methyl-1H-indol-2-yl)methyl)benzoyl)piperidin-4-yl)acetic acid]	< 100
Cc1ccc(C(=O)N2CCOCC2)c(C)c1Cc1cc2c(C)cc(C(F)(F)F)cc2n1C [G, (3-((1,4-dimethyl-6-(trifluoromethyl)-1H-indol-2-yl)methyl)-2,4-dimethylphenyl)(morpholino)methanone]	< 100
Cc1cn(Cc2c(Cl)ccc(C(=O)N3CC[C@H](C(=O)O)[C@H](C)C3)c2Cl)c2c(C)cc(C(F)(F)F)cc12 [DH1-1]	< 100
Cn1c(C(=O)c2c(Cl)ccc(C(=O)N3CCOCC3)c2Cl)cc2ncc(C(F)(F)F)cc21 [CP, (2,4-dichloro-3-(1-methyl-6-(trifluoromethyl)-1H-pyrrolo[3,2-b]pyridine-2-carbonyl)phenyl)(morpholino)methanone]	1000 to 10000
Cc1cc(C#N)cc2c1cc(Cc1c(Cl)ccc(O[C@H]3CC[C@H](C(=O)O)C3)c1Cl)n2C (relative stereo) [Example AG, trans-3-(2,4-dichloro-3-((6-cyano-1,4-dimethyl-1H-indol-2-yl)methyl)phenoxy)cyclopentanecarboxylic acid]	100 to 500
Cc1cc(C(F)(F)F)cc2c1cc(Cc1c(Cl)ccc(C(=O)N3CC(C)(C(=O)O)C3)c1Cl)n2C [Example B-5]	100 to 500
Cn1c(Cc2c(Cl)ccc(C(=O)N3CCN(C4CC(C(=O)O)C4)CC3)c2Cl)cc2ccc(C(F)(F)F)cc21 (stereo not drawn) [O, 3-(4-(2,4-dichloro-3-((1-methyl-6-(trifluoromethyl)-1H-indol-2-yl)methyl)benzoyl)piperazin-1-yl)cyclobutanecarboxylic acid]	100 to 500
Cc1cn(C(=O)c2c(Cl)ccc(C(=O)N3CCC(O)CC3)c2Cl)c2c(C)cc(C#N)cc12 [DM, 1-(2,6-dichloro-3-(4-hydroxypiperidine-1-carbonyl)benzoyl)-3,7-dimethyl-1H-indole-5-carbonitrile]	100 to 500
Cc1cc(C(F)(F)F)cc2c1cc(Cc1c(Cl)ccc(C(=O)N3CCOCC3)c1Cl)n2C [D, (2,4-dichloro-3-((1,4-dimethyl-6-(trifluoromethyl)-1H-indol-2-yl)methyl)phenyl)(morpholino)methanone]	< 100
Cc1cc(OC(F)(F)F)cc2c1c(Cc1c(Cl)cnc(C(=O)N3CCC(CC(=O)O)CC3)c1Cl)cn2C [DX, 2-[1-[3,5-dichloro-4-[[1,4-dimethyl-6-(trifluoromethoxy)-1H-indol-3-yl]methyl]pyridine-2-carbonyl]-4-piperidyl]acetic acid]	< 100
Cc1cn(Cc2c(Cl)ccc(C(=O)N3CCC(CC(=O)O)CC3)c2Cl)c2c(C)cc(C#N)cc12 [DL, 2-(1-(2,4-dichloro-3-((5-cyano-3,7-dimethyl-1H-indol-1-yl)methyl)benzoyl)piperidin-4-yl)acetic acid]	< 100

Second part, the molecule after the results:

IC50 [nM]	Structure (SMILES)
100 to 500	Cc1cc(C#N)cc2c1cc(Cc1c(Cl)ccc(C(=O)N3CCC(CO)C3)c1Cl)n2C (stereo not drawn) [AA-19]
100 to 500	Cc1cc(C#N)cc2c1cc(Cc1c(Cl)ccc(C(=O)NC3COC3)c1Cl)n2C [AA-24]
< 100	Cc1cc(Cl)nc2c1cc(Cc1c(Cl)ccc(C(=O)N3CCOCC3)c1Cl)n2C [CM1, (2,4-dichloro-3-((6-chloro-1,4-dimethyl-1H-pyrrolo[2,3-b]pyridin-2-yl)methyl)phenyl)(morpholino)methanone]
100 to 500	Cc1cc(C(F)(F)F)cn2c(C)c(Cc3c(Cl)ccc(C(=O)N4CCC(CCO)CC4)c3Cl)nc12 [CT-2]
100 to 500	Cc1cc(C#N)cc2c1cc(Cc1c(Cl)ccc(C(=O)N3CC(O)C3)c1Cl)n2C [AA-20]
< 100	Cc1cc(C#N)cc2c1cc(Cc1c(Cl)ccc(C(=O)N3CCN(C(C)C)CC3)c1Cl)n2C [AA-11]
500 to 1000	Cc1cc(C#N)cc2c1nc(Cc1c(Cl)ccc(C(=O)N3CCN(C4COC4)CC3)c1Cl)n2C [BN-11]
